Key:
[1] = test system: C57BL/6 mice with telogen hair; assay: Hair growth promotion on shaved dorsal skin; assay type: in vivo; conditions: vs vehicle
Method: In order to examine the hair growth promoting efficacy, 8-week-old C57BL/6 mice with telogen hair having pink dorsal skin were used. The mice were anesthetized, then the hair on the back of the mouse was removed using an electric hair clipper for animals. Amuc_1409 was dissolved in vehicle (50% ethanol, 20% propylene glycol, 30% water) at a concentration of 3.2 μM and then applied to the skin of the hair-removed site by 200 μL per animal using a pipette once a day for 21 days, and PEP006 to PEP013 were each dissolved in vehicle (50% ethanol, 20% propylene glycol, 30% water) at a concentration of 30 μM and then applied to the skin of the hair-removed site by 200 μL per animal using a pipette once a day for 28 days. For the control group, the same volume of vehicle (50% ethanol, 20% propylene glycol, 30% water) was applied to the skin.
Skin color and hair density were visually observed, scored according to the scoring criteria in Table 5, and graphed (Table 5).
After the experiment, the test animals were sacrificed, then the skin tissue of the mouse was fixed in 10% NBF at room temperature for 24 hours or more, and then embedded in paraffin to prepare a 5 μm-thick section, and the section was stained with (H&E) hematoxylin and eosin. The histological changes of the hair follicle tissue in the H&E-stained tissue sections were observed under an optical microscope. The number and depth of hair follicles and the thicknesses of dermis and subcutis were measured under an optical microscope, and the hair growth cycle was evaluated. The number of hair follicles was calculated by counting the number of hair follicles present in the subcutaneous tissue under a 100-magnification optical microscope. Changes in the depth of hair follicles and the thicknesses of dermis and subcutis were measured using the Image J program using a scale bar.

[2] = test system: gastritis/gastric ulcer model; assay: HCl/ethanol gastritis/gastric ulcer model; assay type: in vivo, C57BL/6J mice; conditions: vs PBS buffer group; for degree of gastric mucosal damage (score): oral, 1 hour after HCl/ethanol
Method: For a gastritis/gastric ulcer model, 7-week-old male C57BL/6J mice were used, and from 3 days before induction, the peptides of the present invention were dissolved in PBS buffer and then orally administered to the mice by 150 μL per animal at the same time once a day. Amuc_1409 or PEP001, PEP002, PEP003, PEP004, or PEP005 was dissolved in PBS buffer at a concentration of 6.7 μM, and novel tetrapeptides PEP006, PEP007, PEP008, PEP009, and PEP010 and novel tripeptides PEP011, PEP012, and PEP013 were each dissolved in PBS buffer at a concentration of 0.15 μg/150 μL (PEP006) or 0.2 μg/150 μL (PEP007, PEP008, PEP009, PEP010, PEP011, PEP012, and PEP013). For the induction of acute gastritis/gastric ulcer, 0.3 M HCl/60% ethanol was orally administered to the mice by 0.2 mL for each, the tissue was harvested after 1 hour, photographs of the inner surface of the stomach were taken, and the degree of damage to the stomach was compared. Measurements of gastritis/gastric ulcer indexes were converted into scores according to the degree of mucosal damage. A score of 0 was given if there was no damage, a score of 1 was given to an insignificant circle-shaped hemorrhagic corrosion site of less than 5 mm, a score of 2 was given to a hemorrhagic corrosion site with a length more than 5 mm, and a score of 3 was given to one or more hemorrhagic corrosion sites corresponding to the score of 2, a score of 4 was given to a hemorrhagic corrosion of more than 5 mm in length and less than 2 mm in width, a score of 5 was given to 2 to 3 hemorrhagic corrosions corresponding to the score of 4, a score of 6 was given to 4 to 5 hemorrhagic corrosions corresponding to the score of 4, a score of 7 was given to 6 or more hemorrhagic corrosions corresponding to the score of 4, and a score of 8 was given if there was hemorrhagic corrosion throughout the gastric mucosa. In order to confirm additional anti-inflammatory activity of the administered peptides, mRNA expression of inflammation-related genes, Tnfα, Il-1β, iNos, Cox2, and Il-10, in the gastric mucosal tissue was examined.

[3] = test system: C57BL/6J naturally aged mice; assay: Skin aging in naturally aged mice (skin H&E); assay type: in vivo, C57BL/6J mice; conditions: oral, vs PBS buffer group
Method: As an animal model of aging, 19- to 22-month old C57BL/6J naturally aged mice were used. Solid feed and water were sufficiently supplied until the day of the experiment, the environment was maintained at a temperature of 22° C. 2° C., humidity of 55%±15%, and a 12-hour light/dark cycle, and the mice were used for the experiment. Amuc_1409 and PEP001 were dissolved in PBS buffer at 10 μg/150 μL and 0.7 μg/150 μL, respectively, and then orally administered to the naturally aged mice by 150 μL per animal at the same time once a day for […], and novel tetrapeptides PEP006, PEP007, PEP008, PEP009, and PEP010 and novel tripeptides PEP011, PEP012, and PEP013 were each dissolved in PBS buffer at a concentration of 0.2 μg/150 μL and then orally administered to the naturally aged mice by 150 μL per animal at the same time once a day for 10 weeks. To the control group, PBS buffer was orally administered in the same manner.
On the day to be the 10th week of administration, a part of the tissue was excised from the back of the mouse and fixed in 10% formalin for 24 hours or more for histopathological analysis.
The fixed skin tissue was embedded in paraffin to prepare a 5 μm-thick section, and the skin section was H&E-stained with hematoxylin and eosin to analyze the skin epidermis thickness and the number of hair follicles.

small intestine organoid = assay: Small intestine organoid sprouting; assay type: cell-based, C57BL/6J mice; conditions: 16 nM on days 0, 2, 4; day 5 of culture; vs PBS buffer
Method: In order to establish a small intestine organoid model, the small intestine of 15-week-old male C57BL/6J mice was cut longitudinally from the proximal end to the distal end, and cut transversely into about 5 mm long pieces. The small intestine tissue thus obtained was washed with refrigerated PBS containing 1% penicillin. Thereafter, the washed small intestine tissue was treated with dissociation buffer and filtered through a cell strainer to isolate crypts. The isolated crypt was cultured in Matrigel and Organoid Growth Medium (Intesticult™) mixed at a ratio of 1:1, Matrigel was solidified at 37° C. for 20 minutes in a 12 well plate, and then medium (500 μL/well) was added. The medium was replaced after 4 days, and subculture was performed on day 7.
For novel peptide screening, organoids 3D cultured in medium and Matrigel support were dispensed into 3 wells per group using a 12-well plate and 50 organoids per well. On days 0, 2, and 4 of culture, the organoids were treated with novel tetrapeptides PEP006, PEP007, PEP008, PEP009, and PEP010 and novel tripeptides PEP011, PEP012, and PEP013 at a concentration of 16 nM as described above, and the number of lobes of sprouted organoids on day 5 of culture was examined and analyzed for comparison. The control group was treated with PBS buffer in the same manner.

[4] = day 28 after application, 30 μM topical

## AGAY (PEP006)
[1]; [4]
  proportion of the area where hair grew out to the total area (hair growth score): tended to increase
[2]
  degree of gastric mucosal damage (score): significantly decreased
[3]
  number of hair follicles: tended to increase
  thickness of the skin epidermis: significantly increased
Small intestine organoid
  number of lobes of sprouted organoids: significantly increased

## AGS [PEP012]
[1]; [4]
  proportion of the area where hair grew out to the total area (hair growth score): tended to increase
[2]
  degree of gastric mucosal damage (score): significantly decreased
[3]
  number of hair follicles: tended to increase
  thickness of the skin epidermis: significantly increased
Small intestine organoid
  number of lobes of sprouted organoids: significantly increased

## AIS [PEP013]
[1]; [4]
  proportion of the area where hair grew out to the total area (hair growth score): tended to increase
[2]
  degree of gastric mucosal damage (score): significantly decreased
[3]
  number of hair follicles: tended to increase
  thickness of the skin epidermis: increased close to a significant level
Small intestine organoid
  number of lobes of sprouted organoids: significantly increased

## AQS [PEP011]
[1]; [4]
  proportion of the area where hair grew out to the total area (hair growth score): tended to increase
[2]
  degree of gastric mucosal damage (score): significantly decreased
[3]
  thickness of the skin epidermis: significantly increased
Small intestine organoid
  number of lobes of sprouted organoids: significantly increased

## AVS (AVSSIKGAY) [PEP004]
[2]; RT-qPCR
  Cox2 expression in gastric mucosal tissue: significantly decreased
  Il-1p expression in gastric mucosal tissue: significantly decreased
  Tnfα mRNA expression in gastric mucosal tissue: significantly decreased
  iNos mRNA expression in gastric mucosal tissue: significantly decreased
[2]
  degree of gastric mucosal damage (score): significantly decreased

## AVSSI (PEP002)
[2]; RT-qPCR
  Cox2 expression in gastric mucosal tissue: significantly decreased
  Il-1p expression in gastric mucosal tissue: significantly decreased
  Tnfα mRNA expression in gastric mucosal tissue: significantly decreased
  iNos mRNA expression in gastric mucosal tissue: significantly decreased
[2]
  degree of gastric mucosal damage (score): significantly decreased

## AVSSIKGAY (PEP001)
[2]; RT-qPCR
  Cox2 expression in gastric mucosal tissue: significantly decreased
  Il-1p expression in gastric mucosal tissue: significantly decreased
  Tnfα mRNA expression in gastric mucosal tissue: significantly decreased
  iNos mRNA expression in gastric mucosal tissue: significantly decreased
[2]
  degree of gastric mucosal damage (score): significantly decreased
[3]
  thickness of the skin epidermis: significantly increased

## GAY [PEP005]
[2]; RT-qPCR
  Cox2 expression in gastric mucosal tissue: significantly decreased
  Il-1p expression in gastric mucosal tissue: significantly decreased
  Tnfα mRNA expression in gastric mucosal tissue: significantly decreased
  iNos mRNA expression in gastric mucosal tissue: significantly decreased
[2]
  degree of gastric mucosal damage (score): significantly decreased

## IGAY (PEP008)
[1]; [4]
  proportion of the area where hair grew out to the total area (hair growth score): tended to increase
[2]
  degree of gastric mucosal damage (score): decreased to a significant level
[3]
  number of hair follicles: tended to increase
  thickness of the skin epidermis: significantly increased
Small intestine organoid
  number of lobes of sprouted organoids: significantly increased

## KGAY (PEP003)
[2]; RT-qPCR
  Cox2 expression in gastric mucosal tissue: significantly decreased
  Il-1p expression in gastric mucosal tissue: significantly decreased
  Tnfα mRNA expression in gastric mucosal tissue: significantly decreased
  iNos mRNA expression in gastric mucosal tissue: significantly decreased
[2]
  degree of gastric mucosal damage (score): significantly decreased

## RGAY (PEP007)
[1]; [4]
  proportion of the area where hair grew out to the total area (hair growth score): tended to increase
[2]
  degree of gastric mucosal damage (score): decreased to a significant level
[3]
  number of hair follicles: tended to increase
  thickness of the skin epidermis: significantly increased
Small intestine organoid
  number of lobes of sprouted organoids: significantly increased

## SGAY (PEP009)
[1]; [4]
  proportion of the area where hair grew out to the total area (hair growth score): tended to increase
[2]
  degree of gastric mucosal damage (score): decreased to a significant level
[3]
  number of hair follicles: tended to increase
  thickness of the skin epidermis: significantly increased
Small intestine organoid
  number of lobes of sprouted organoids: significantly increased

## VGAY (PEP010)
[2]
  degree of gastric mucosal damage (score): significantly decreased
[3]
  number of hair follicles: tended to increase
  thickness of the skin epidermis: significantly increased
Small intestine organoid
  number of lobes of sprouted organoids: significantly increased

B1: Amuc_1409: SEQ ID NO: 15, functional fragment obtained by eliminating the leader sequence from SEQ ID NO: 14; protein derived from Akkermansia muciniphila (protein)
chain: IPESSVPAAAVSSIKGAYPNAGPIEWDSEMHGMERIYEAEFRINGFQFDVKIAPDGKIVRIKEEIAASSLPEAVRASVLKRYPGCRIKEAEKITEGELVRYKVEVADSRDDYDVLIAPDGNILHVDR
modifications: Amuc_1409_fragment
notes: protein derived from Akkermansia muciniphila
[1]; H&E
  depth of the hair follicle: significantly increased
  number of hair follicles present in the subcutaneous fat layer: significantly increased
  proportion of hair in the anagen phase: significantly increased
  thickness of dermis: significantly increased
  thickness of subcutis: significantly increased
[1]; day 21 after application, 3.2 μM topical
  proportion of the area where hair grew out to the total area (hair growth score): significantly increased
[2]; RT-qPCR
  Il-10 mRNA expression in gastric mucosal tissue: increased
  Tnfα mRNA expression in gastric mucosal tissue: significantly decreased
  iNos mRNA expression in gastric mucosal tissue: significantly decreased
[2]
  degree of gastric mucosal damage (score): significantly decreased
[3]
  thickness of the skin epidermis: significantly increased

— US20240209022A1, “NOVEL PEPTIDE HAVING ANTI-INFLAMMATORY AND TISSUE REGENERATIVE ACTIONS” (KOREA RESEARCH INSTITUTE OF BIOSCIENCE AND BIOTECHNOLOGY, priority 2020, published 2024)
